# According to PMC6704710, “Preclinical evaluation of 3D185, a novel potent inhibitor of FGFR1/2/3 and CSF-1R, in FGFR-dependent and macrophage-dominant cancer models” (Journal of Experimental & Clinical Cancer Research : CR, 2019):
# How the values were obtained:
# Assay in all cases: Eurofins kinase panel
# Type in all cases: biochemical
# Details in all cases: read-out: Inhibition rate (%)
# [1] = biological target: T1, CDK5/p25(h) (Homo sapiens, UniProt Q00535)
# T1 construct: purchased Eurofins (KinaseProfiler)
# T1 sequence (Q00535 whole entry): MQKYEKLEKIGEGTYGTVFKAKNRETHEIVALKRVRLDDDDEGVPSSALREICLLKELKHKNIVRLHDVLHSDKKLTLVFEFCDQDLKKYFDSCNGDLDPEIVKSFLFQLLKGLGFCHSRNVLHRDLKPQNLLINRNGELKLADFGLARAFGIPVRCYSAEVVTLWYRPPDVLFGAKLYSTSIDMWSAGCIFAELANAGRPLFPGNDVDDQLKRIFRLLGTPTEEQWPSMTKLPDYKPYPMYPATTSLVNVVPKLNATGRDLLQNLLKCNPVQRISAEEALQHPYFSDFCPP
# T1 sequence (Q15078 99-307 partner limits assumed): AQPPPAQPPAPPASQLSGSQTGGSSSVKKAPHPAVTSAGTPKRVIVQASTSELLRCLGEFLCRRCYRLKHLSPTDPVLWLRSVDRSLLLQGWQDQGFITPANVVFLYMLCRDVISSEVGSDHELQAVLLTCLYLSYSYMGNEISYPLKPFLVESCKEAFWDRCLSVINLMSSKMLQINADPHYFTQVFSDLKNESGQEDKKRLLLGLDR
# [2] = biological target: T2, CDKL3(h) (Homo sapiens, UniProt Q8IVW4)
# T2 construct: purchased Eurofins (KinaseProfiler)
# T2 sequence (Q8IVW4 whole entry): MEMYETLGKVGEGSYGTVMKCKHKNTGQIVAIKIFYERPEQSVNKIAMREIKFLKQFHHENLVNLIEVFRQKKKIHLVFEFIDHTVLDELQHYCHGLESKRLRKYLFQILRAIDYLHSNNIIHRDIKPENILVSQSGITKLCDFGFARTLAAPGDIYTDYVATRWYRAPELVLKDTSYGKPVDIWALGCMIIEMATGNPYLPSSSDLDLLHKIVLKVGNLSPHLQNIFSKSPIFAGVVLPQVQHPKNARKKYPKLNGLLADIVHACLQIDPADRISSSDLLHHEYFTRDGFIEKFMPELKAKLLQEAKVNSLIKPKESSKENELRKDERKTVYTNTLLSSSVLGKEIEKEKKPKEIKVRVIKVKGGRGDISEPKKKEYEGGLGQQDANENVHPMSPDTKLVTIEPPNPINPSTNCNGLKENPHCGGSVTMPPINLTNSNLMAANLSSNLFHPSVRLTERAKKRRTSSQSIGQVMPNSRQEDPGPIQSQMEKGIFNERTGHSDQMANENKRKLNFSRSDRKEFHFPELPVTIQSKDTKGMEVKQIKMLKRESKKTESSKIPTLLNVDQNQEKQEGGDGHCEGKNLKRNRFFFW
# [3] = biological target: T3, CK1γ2(h) (Homo sapiens, UniProt P78368)
# T3 construct: purchased Eurofins (KinaseProfiler)
# T3 sequence (P78368 whole entry): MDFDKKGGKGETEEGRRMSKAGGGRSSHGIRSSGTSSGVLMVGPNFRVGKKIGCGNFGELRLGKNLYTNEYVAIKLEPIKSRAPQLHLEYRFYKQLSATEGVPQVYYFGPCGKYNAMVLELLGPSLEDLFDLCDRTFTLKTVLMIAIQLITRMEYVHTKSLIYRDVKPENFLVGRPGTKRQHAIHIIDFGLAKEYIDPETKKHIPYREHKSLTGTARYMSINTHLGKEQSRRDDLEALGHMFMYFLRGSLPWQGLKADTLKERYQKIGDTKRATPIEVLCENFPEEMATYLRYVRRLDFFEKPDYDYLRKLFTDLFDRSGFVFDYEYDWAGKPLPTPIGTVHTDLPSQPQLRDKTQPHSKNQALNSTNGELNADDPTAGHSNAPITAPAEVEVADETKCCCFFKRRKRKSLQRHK
# [4] = biological target: T4, DDR1(h) (Homo sapiens, UniProt Q08345)
# T4 construct: purchased Eurofins (KinaseProfiler)
# T4 sequence (Q08345 19-913): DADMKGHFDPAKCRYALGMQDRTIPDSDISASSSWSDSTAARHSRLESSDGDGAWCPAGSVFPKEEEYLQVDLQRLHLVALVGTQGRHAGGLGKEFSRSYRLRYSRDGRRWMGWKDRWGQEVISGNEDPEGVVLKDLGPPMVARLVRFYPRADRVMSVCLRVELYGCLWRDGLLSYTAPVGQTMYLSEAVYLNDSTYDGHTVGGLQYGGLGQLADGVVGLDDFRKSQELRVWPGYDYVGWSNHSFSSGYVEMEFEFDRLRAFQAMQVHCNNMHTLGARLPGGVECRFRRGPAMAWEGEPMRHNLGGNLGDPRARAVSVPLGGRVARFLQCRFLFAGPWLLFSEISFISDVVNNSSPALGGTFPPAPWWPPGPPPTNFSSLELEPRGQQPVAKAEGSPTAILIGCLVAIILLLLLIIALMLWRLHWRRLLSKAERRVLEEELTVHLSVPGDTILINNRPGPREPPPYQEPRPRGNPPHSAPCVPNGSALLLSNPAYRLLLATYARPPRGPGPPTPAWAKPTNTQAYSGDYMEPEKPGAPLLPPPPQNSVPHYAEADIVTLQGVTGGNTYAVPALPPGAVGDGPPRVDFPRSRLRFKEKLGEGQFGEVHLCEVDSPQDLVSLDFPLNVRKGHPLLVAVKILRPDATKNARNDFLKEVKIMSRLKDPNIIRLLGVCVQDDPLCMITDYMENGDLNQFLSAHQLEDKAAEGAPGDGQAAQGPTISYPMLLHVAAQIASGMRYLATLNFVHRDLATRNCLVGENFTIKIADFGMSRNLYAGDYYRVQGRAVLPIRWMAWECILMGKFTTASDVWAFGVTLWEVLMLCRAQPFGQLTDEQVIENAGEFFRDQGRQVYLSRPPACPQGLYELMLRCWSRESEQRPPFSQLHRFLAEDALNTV
# [5] = biological target: T5, HPK1(h) (Homo sapiens, UniProt Q92918)
# T5 construct: purchased Eurofins (KinaseProfiler)
# T5 sequence (Q92918 whole entry): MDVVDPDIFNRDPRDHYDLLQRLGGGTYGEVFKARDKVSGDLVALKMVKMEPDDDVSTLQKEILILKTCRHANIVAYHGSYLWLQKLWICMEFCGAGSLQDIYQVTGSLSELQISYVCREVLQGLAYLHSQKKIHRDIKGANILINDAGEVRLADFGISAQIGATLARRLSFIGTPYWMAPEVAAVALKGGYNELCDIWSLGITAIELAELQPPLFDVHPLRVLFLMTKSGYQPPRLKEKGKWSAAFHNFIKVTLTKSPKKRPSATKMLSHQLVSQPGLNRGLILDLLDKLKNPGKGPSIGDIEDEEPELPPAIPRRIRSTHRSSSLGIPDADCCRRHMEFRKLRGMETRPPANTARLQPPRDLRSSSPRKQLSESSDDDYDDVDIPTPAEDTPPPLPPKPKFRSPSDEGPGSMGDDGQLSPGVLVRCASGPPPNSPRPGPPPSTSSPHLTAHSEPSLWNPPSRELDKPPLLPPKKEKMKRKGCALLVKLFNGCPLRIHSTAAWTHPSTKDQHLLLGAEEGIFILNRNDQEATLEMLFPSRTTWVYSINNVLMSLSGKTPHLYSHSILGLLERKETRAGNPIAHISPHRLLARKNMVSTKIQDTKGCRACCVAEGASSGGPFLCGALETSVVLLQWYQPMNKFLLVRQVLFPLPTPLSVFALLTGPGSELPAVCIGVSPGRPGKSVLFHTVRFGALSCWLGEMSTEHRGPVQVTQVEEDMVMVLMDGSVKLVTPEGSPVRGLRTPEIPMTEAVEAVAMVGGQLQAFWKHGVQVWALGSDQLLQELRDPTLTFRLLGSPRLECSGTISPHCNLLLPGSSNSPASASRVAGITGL
# [6] = biological target: T6, MLK1(h) (Homo sapiens, UniProt P80192)
# T6 construct: purchased Eurofins (KinaseProfiler)
# T6 sequence (P80192 whole entry): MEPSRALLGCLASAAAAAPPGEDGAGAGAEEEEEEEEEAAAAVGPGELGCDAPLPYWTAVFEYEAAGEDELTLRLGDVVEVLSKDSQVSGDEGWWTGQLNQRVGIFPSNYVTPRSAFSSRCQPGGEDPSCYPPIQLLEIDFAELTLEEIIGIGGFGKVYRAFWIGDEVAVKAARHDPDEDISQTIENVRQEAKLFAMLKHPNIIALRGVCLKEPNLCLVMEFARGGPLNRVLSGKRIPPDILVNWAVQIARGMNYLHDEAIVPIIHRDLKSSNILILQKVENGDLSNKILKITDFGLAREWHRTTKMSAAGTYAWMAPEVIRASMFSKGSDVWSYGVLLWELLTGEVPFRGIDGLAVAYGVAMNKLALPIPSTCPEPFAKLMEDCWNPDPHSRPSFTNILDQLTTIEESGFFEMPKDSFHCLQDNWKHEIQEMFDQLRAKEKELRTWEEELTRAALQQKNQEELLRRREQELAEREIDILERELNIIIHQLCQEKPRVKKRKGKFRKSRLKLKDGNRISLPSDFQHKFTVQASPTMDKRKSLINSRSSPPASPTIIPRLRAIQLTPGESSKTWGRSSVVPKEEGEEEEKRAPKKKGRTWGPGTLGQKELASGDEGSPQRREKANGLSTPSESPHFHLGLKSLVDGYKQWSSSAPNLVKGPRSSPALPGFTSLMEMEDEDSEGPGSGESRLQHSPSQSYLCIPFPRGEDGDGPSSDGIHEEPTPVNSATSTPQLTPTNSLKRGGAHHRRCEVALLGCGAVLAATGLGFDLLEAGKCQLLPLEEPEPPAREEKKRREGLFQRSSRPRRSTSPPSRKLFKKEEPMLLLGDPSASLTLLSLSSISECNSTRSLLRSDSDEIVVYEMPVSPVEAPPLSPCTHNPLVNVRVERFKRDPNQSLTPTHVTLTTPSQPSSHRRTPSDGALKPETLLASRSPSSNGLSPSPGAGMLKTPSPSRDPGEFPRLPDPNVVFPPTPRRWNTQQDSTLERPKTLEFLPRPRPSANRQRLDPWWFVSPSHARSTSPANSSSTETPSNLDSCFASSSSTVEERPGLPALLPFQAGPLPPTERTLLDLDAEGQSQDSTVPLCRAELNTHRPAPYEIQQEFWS
# [7] = biological target: T7, NEK2(h) (Homo sapiens, UniProt P51955)
# T7 construct: purchased Eurofins (KinaseProfiler)
# T7 sequence (P51955 1-445): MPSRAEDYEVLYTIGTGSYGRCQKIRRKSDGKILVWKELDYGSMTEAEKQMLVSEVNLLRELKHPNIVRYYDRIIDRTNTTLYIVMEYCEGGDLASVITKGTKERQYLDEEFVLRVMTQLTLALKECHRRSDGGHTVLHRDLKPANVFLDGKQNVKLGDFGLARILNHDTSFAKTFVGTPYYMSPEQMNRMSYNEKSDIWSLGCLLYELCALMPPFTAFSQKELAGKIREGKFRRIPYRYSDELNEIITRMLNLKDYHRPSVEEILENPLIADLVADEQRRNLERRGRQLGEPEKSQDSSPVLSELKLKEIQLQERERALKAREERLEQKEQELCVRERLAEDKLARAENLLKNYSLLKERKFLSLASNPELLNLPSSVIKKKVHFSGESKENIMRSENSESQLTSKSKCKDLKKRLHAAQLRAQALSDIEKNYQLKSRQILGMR
# [8] = biological target: T8, PKCγ(h) (Homo sapiens, UniProt P05129)
# T8 construct: purchased Eurofins (KinaseProfiler)
# [9] = biological target: T9, Plk4(h) (Homo sapiens, UniProt O00444)
# T9 construct: purchased Eurofins (KinaseProfiler)
# T9 sequence (O00444 1-970): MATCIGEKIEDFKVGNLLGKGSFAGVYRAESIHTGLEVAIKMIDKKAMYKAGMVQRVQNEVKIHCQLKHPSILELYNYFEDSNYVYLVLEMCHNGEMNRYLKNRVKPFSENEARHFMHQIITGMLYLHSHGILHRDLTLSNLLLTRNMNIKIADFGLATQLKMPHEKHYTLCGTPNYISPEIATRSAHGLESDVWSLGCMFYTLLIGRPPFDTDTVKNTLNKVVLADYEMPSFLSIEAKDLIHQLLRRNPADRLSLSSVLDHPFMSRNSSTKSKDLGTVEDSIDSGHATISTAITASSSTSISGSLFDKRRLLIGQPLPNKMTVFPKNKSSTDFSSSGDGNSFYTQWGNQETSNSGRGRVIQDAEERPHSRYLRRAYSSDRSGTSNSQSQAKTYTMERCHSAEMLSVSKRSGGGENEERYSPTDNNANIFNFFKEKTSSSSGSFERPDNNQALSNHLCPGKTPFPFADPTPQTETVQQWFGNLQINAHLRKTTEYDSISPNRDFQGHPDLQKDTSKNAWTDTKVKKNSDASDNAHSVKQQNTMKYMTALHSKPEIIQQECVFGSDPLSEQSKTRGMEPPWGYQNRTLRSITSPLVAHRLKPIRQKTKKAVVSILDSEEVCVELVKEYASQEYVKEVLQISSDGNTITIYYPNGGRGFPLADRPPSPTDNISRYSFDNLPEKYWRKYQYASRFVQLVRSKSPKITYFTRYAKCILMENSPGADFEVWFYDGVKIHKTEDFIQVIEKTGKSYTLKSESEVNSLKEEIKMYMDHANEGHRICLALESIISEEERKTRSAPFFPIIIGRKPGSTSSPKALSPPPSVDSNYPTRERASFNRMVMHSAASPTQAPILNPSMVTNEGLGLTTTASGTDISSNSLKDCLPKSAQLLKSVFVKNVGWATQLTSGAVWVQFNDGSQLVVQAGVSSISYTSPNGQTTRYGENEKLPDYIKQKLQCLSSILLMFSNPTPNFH
structure (smiles),measurement,setting,value
COc1cc(OC)c(Cl)c(-c2ccc3c(NC(=O)c4ccc(N5CCNC(C)(C)C5)cc4)n[nH]c3n2)c1Cl [3D185],inhibition at 0.01 µM,[1]; 10 nM,10%
same,inhibition at 0.1 µM,[1]; 100 nM,4%
same,inhibition at 1 µM,[1]; 1000 nM,3%
same,inhibition at 0.01 µM,[2]; 10 nM,-12%
same,inhibition at 0.1 µM,[2]; 100 nM,-17%
same,inhibition at 1 µM,[2]; 1000 nM,-9%
same,inhibition at 0.01 µM,[3]; 10 nM,-9%
same,inhibition at 0.1 µM,[3]; 100 nM,-8%
same,inhibition at 1 µM,[3]; 1000 nM,-7%
same,inhibition at 0.01 µM,[4]; 10 nM,6%
same,inhibition at 0.1 µM,[4]; 100 nM,27%
same,inhibition at 1 µM,[4]; 1000 nM,64%
same,inhibition at 0.01 µM,[5]; 10 nM,17%
same,inhibition at 0.1 µM,[5]; 100 nM,65%
same,inhibition at 1 µM,[5]; 1000 nM,94%
same,inhibition at 0.01 µM,[6]; 10 nM,-9%
same,inhibition at 0.1 µM,[6]; 100 nM,-1%
same,inhibition at 1 µM,[6]; 1000 nM,26%
same,inhibition at 0.01 µM,[7]; 10 nM,15%
same,inhibition at 0.1 µM,[7]; 100 nM,67%
same,inhibition at 1 µM,[7]; 1000 nM,94%
same,inhibition at 0.01 µM,[8]; 10 nM,-4%
same,inhibition at 0.1 µM,[8]; 100 nM,-8%
same,inhibition at 1 µM,[8]; 1000 nM,-1%
same,inhibition at 0.01 µM,[9]; 10 nM,-18%
same,inhibition at 0.1 µM,[9]; 100 nM,-20%
same,inhibition at 1 µM,[9]; 1000 nM,-17%
